± gives the expanded uncertainty stated by the source.
Key:
[1] = 298.15 K; 101.33 kPa; Crystal; Vibrating tube method
[2] = Molar enthalpy of transition or fusion; details: Crystal; DSC
[3] = Solid-liquid equilibrium temperature; details: 101 kPa; Crystal; DTA

In the case of `CS(=O)(=O)c1ccc(C=O)cc1` [4-(methylsulfonyl)benzaldehyde], the mass density [1] is reported as 1289 ± 3 kg/m3, the “Molar enthalpy of transition or fusion” value [2] is reported as 6.26 ± 0.229 kcal/mol and the Solid-liquid equilibrium temperature [3] is reported as 431.49 ± 1 K.

Source: the NIST ThermoML archive (doi:10.1021/acs.jced.5b01053)
